Experimental data taken from ChEMBL document CHEMBL1155824, “Synthesis and antitumor activity of cyclodepsipeptide zygosporamide and its analogues” (Bioorg Med Chem Lett, 2008).

Tests used:
Assay type in all cases: functional, cell-based
[1] = system: SF-295; assay: Cytotoxicity against human SF295 cells
[2] = system: HCT-116; assay: Cytotoxicity against human HCT116 cells
[3] = system: A549; assay: Cytotoxicity against human A549 cells
[4] = system: SF-268; assay: Cytotoxicity against human SF268 cells
[5] = system: MDA-MB-231; assay: Cytotoxicity against human MDA-MB-231 cells

Row | SMILES | IC50 [1] [µM] | IC50 [2] [µM] | IC50 [3] [µM] | IC50 [4] [µM] | IC50 [5] [µM]
1 | CC(C)C[C@@H]1OC(=O)[C@H](Cc2ccccc2)NC(=O)[C@H](C)NC(=O)[C@@H](CC(C)C)NC(=O)[C@H](Cc2ccccc2)NC1=O | > 50 | > 50 | > 50 | > 50 | > 50
2 | CC(C)C[C@@H]1NC(=O)[C@@H](CC(C)C)NC(=O)[C@H](Cc2ccccc2)NC(=O)[C@H](CC(C)C)OC(=O)[C@H](C)NC1=O | 6 | 2.7 | > 50 | 8.8 | 2.8
3 | CC(C)C[C@@H]1NC(=O)[C@@H](CC(C)C)NC(=O)[C@H](C)NC(=O)[C@H](CC(C)C)OC(=O)[C@H](Cc2ccccc2)NC1=O | 19.7 | > 50 | 31 | 35 | 7.5
4 | CC(C)C[C@@H]1NC(=O)[C@@H](C)NC(=O)[C@H](Cc2ccccc2)NC(=O)[C@H](CC(C)C)OC(=O)[C@H](Cc2ccccc2)NC1=O | 8.7 | 2.1 | > 50 | 10.4 | 5
5 | CC(C)C[C@@H]1NC(=O)[C@@H](CC(C)C)NC(=O)[C@H](Cc2ccccc2)NC(=O)[C@H](C)OC(=O)[C@H](Cc2ccccc2)NC1=O | 32 | 7.8 | > 50 | 31 | > 50
6 | CC(C)C[C@@H]1NC(=O)[C@H](Cc2ccccc2)NC(=O)[C@H](CC(C)C)NC(=O)[C@@H](CC(C)C)NC(=O)[C@H](Cc2ccccc2)NC1=O | 14.4 | 1.9 | 21 | 20.5 | > 50
7 | CC(=O)O[C@H]1C(=O)[C@@]2(C)[C@H]([C@H](OC(=O)c3ccccc3)[C@]3(O)C[C@H](OC(=O)[C@H](O)[C@@H](NC(=O)c4ccccc4)c4ccccc4)C(C)=C1C3(C)C)[C@]1(OC(C)=O)CO[C@@H]1C[C@@H]2O [PACLITAXEL] | 0.29 | 0.0136 | 0.0231 | 0.0153 | 0.0405
8 | CC(C)C[C@@H]1NC(=O)[C@@H](CC(C)C)NC(=O)[C@H](Cc2ccccc2)NC(=O)[C@H](CC(C)C)OC(=O)[C@H](Cc2ccccc2)NC1=O [ZYGOSPORAMIDE] | 4.2 | 22 | 2.5 | 4.6 | 5.7
